Reference: US7674906B2, “Tetracyclic immunomodulatory compounds” (Active Biotech AB, priority 2002, dated 2010)

The molecules below were run against T1, CD80-CD 28 interaction (Homo sapiens, UniProt P33681) (assay: cell free Homogenous Time Resolved Fluorescence (HTRF) assay, inhibition of the CD80-CD28 interaction). Conditions: CD28-mouse Fc fusion protein and CD80 mouse Fab fragment (C215) fusion protein, 4 hours at room temperature, concentration series 100 μM-1.7 nM.
T1 sequence (P33681 35-242 limits assumed): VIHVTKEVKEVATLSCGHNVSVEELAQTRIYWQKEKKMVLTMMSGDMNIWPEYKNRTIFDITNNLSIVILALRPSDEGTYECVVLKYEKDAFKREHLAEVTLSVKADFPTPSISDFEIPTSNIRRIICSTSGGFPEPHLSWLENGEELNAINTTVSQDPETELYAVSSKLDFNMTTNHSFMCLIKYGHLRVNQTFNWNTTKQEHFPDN
Type: binding
Description: The examples described above were tested in a cell free Homogenous Time Resolved Fluorescence (HTRF) assay to determine their activity as inhibitors of the CD80-CD 28 interaction.
In the assay, europium and allophycocyanin (APC) are associated with CD28 and CD80 indirectly (through anti-body linkers) to form a complex, which brings the europium and APC into close proximity to generate a signal. The complex comprises the following six proteins: fluorescent label 1, linker antibody 1, CD28 fusion protein, CD80 fusion protein, linker antibody 2, and fluorescent label 2. The table below describes these reagents in greater detail.
On formation of the complex, europium and APC are brought into proximity and a signal is generated.
Non-specific interaction was measured by substituting a mouse Fab fragment (C215) for the CD80 mouse Fab fragment fusion protein (1.9 μg/ml). The assay was carried out in black 384 well plates in a final volume of 30 μl. Assay buffer: 50 mM Tris-HCl, 150 mM NaCl pH7.8, containing 0.1% BSA (w/v) added just prior to use.
Compounds were added to the above reagents in a concentration series ranging between 100 μM-1.7 nM. The reaction was incubated for 4 hours at room temperature. Dual measurements were made using a Wallac Victor 1420 Multilabel Counter. First measurement: excitation 340 nm, emission 665 nm, delay 50 μs, window time 200 μs. second measurement: excitation 340 nm, emission 615 nm, delay 50 μs, window time 200 μs. Counts were automatically corrected for fluorescence crossover, quenching and background.

Row | IC50 | SMILES
1 | 4.6 µM | COc1ccc(-c2[nH]c3ccccc3c3nn(-c4cccc(C(=O)O)c4)c(=O)c2-3)cc1 [Example 9]
2 | 3.4 µM | COc1ccc(-c2[nH]c3ccccc3c3nn(-c4ccc(C(=O)O)cc4)c(=O)c2-3)cc1 [Example 7, 4-[4-(4-Methoxyphenyl)-3-oxo-3,5-dihydropyrazolo[4,3-c]-quinolin-2-yl]benzoic acid]
3 | 8.6 µM | O=C(O)c1ccc(-n2nc3c4ccccc4[nH]c(-c4cccc([N+](=O)[O-])c4)c-3c2=O)cc1 [Example 5, 4-[4-(3-Nitro-phenyl)-3-oxo-3,5-dihydro-pyrazolo[4,3-c]-quinolin-2-yl]-benzoic acid]
